Data set [1] in a line: HNO production determined via N2O quantification (GC headspace analysis). Format: physicochemical. The note with it: PBS, 37° C. The source says: Nitrous oxide (N2O) is produced via the dimerization and dehydration of HNO, and is the most common marker for nitroxyl production (Fukuto et al., Chem. Res. Toxicol. 18:790-801 (2005)). […] Using either nitrous oxide gas or Angeli's salt (AS) as a standard, the relative amounts of N2O released from compounds of the disclosure was examined via gas chromatography (GC) headspace analysis.
A procedure for determining the relative amounts of N2O released from compounds of the disclosure is as follows. GC was performed on an Agilent gas chromatograph equipped with a split injector (10:1 splitting), microelectron capture detector, and a HP-MOLSIV 30 m×0.32 mm×25 μm molecular sieve capillary column. Helium was used as the carrier (4 mL/min) gas and nitrogen was used as the make-up (20 mL/min) gas. The injector oven and the detector oven were kept at 200° C. and 325° C., respectively. All nitrous oxide analyses were performed with the column oven held at a constant temperature of 200° C.
All gas injections were made using an automated headspace analyzer. Vial pressurization was 15 psi. The analyzer's sample oven, sampling valve, and transfer line were kept at 40° C., 45° C., and 50° C., respectively. The oven stabilization, vial pressurization, loop fill, loop equilibration, and sample injection times were 1.00 min., 0.20 min., 0.20 min., 0.05 min., and 1.00 min., respectively.
All determinations used a batch of nominal 20 mL headspace vials with volumes pre-measured for sample uniformity (actual vial volume varied by <2.0% relative standard deviation (n=6)). The average vial volume for the batch was determined from six randomly-selected vials by calculating the weight difference between the capped and sealed empty (i.e., air-filled) vial and the capped and sealed deionized water-filled vial using the known density of deionized water, then averaging. Blanks were prepared by sealing and capping two vials then purging each for 20 seconds with a gentle argon stream. Nitroxyl standards were prepared by sealing and capping four vials then purging each for 1 minute with a gentle stream, from a gas cylinder, of a 3000 ppm […].
CXL-1020 (N-hydroxy-2-methanesulfonylbenzene-1-sulfonamide) “standards” were prepared by, in duplicate, accurately weighing 10±0.5 mg of CXL-1020 and adding it to each 4 mL vial. Using an auto pipette, 1 mL of argon-purged anhydrous DMF (Sigma-Aldrich) was added to each 4 mL vial to form a CXL-1020 stock solution for each sample and the vials were capped and shaken and/or sonicated to insure complete dissolution upon visual observation. Using an auto pipette, 20 mL vials were charged with 5 mL of PBS (purged for at least 30 min. with argon prior to use), purged with argon for at least 20 sec., and sealed with a rubber septum. Using a 50 μL syringe, 50 μL of the CXL-1020 stock solution was injected into each 20 mL vial containing the PBS.
Samples were prepared as follows. In duplicate, 18±1 mg of each sample was accurately weighed into each 4 mL vial. Using an auto pipette, 1 mL of argon-purged anhydrous DMF was added to each 4 mL vial to form a sample stock solution for each sample and the vials were capped and shaken and/or sonicated to insure complete sample dissolution upon visual observation. Using an auto pipette, 20 mL vials were charged with 5 mL of PBS (purged for at least 30 min. with argon prior to use), purged with argon for at least 20 sec., and sealed with a rubber septum. The vials were equilibrated for at least 10 min. at 37° C. in a dry block heater. Thereafter, using a 50 μL syringe, 50 μL of a sample stock solution was injected into each 20 mL vial containing the PBS. The vials were then held at 37° C. in the dry block heater for a time period such that the sum of the time spent in the dry block heater plus the time spent in the automated headspace analyzer oven before sample injection equaled the desired incubation time. […]

A short description of data set [2]: In vitro stability (half-life) in phosphate buffered saline (PBS) pH 7.4. In kind it is physicochemical. The note with it: pH 7.4, 5 μM, PBS pH 7.4, 37° C., read-out: T1/2 (minutes) PBS. The procedure: (§1) Certain compounds from Tables 1 and 2 and CXL-1020 were tested for their stability in phosphate buffered saline (PBS) and plasma. The assay system comprised (i) PBS, or plasma from rat, dog or human (at least 3 donors, male, pooled) at pH 7.4, and (ii) for tests conducted in plasma, an anticoagulant (sodium heparin or sodium citrate). Each test compound (5 μM) was incubated in PBS or plasma at 37° C. on a THERMOMIXER® with shaking. Three samples (n=3) were taken at each of seven sampling time points: 0, 10, 30, 60, 90, 180 and 360 minutes. The samples were immediately combined with 3 volumes (i.e., 3 times the volume of PBS or plasma) of acetonitrile containing 1% formic acid and an internal standard to terminate the reaction. AB SCIEX API 3000 LC-MS/MS analysis of the test compounds was performed without a standard curve. Half-lives (T1/2) of the test compounds were determined from graphs of the percent remaining values using the peak area response ratio. For compounds tested multiple times, the value provided in the Table represents an average of the replicate assays.

A short description of data set [3]: In vitro stability (half-life) in dog plasma. Format: in vitro ADME. The note with it: male, dog, plasma, pH 7.4, 5 μM, dog plasma pH 7.4 with anticoagulant, 37° C.; read-out: T1/2 (minutes) Dog. The method, then:
as §1

Data set [4] in a line: In vitro stability (half-life) in rat plasma. In kind it is in vitro ADME. The note with it: rat plasma pH 7.4 with anticoagulant, 37° C.; for half-life at 5 μM: male, rat, plasma, pH 7.4, 5 μM, read-out: T1/2 (minutes) Rat. The method, then:
as §1

From patent publication US10245249B2, “Pharmaceutical compositions comprising nitroxyl donors” (Cardioxyl Pharmaceuticals, Inc., priority 2013, dated 2019) come the findings set out here.

`Cc1cc(S(=O)(=O)NO)c(C(F)(F)F)o1` [Compound 7, N-Hydroxy-5-methyl-2-(trifluoromethyl)furan-3-sulfonamide]: the “Relative N2O Yield (90 minutes incubation)” value in data set [1] is recorded as 51%. The half-life at 5 μM is 224 min in data set [2] and 56 min in data set [3].

Regarding `CS(=O)(=O)c1cc(S(=O)(=O)NO)cs1` [Compound 8, N-Hydroxy-5-methanesulfonylthiophene-3-sulfonamide], the “Relative N2O Yield (90 minutes incubation)” value in data set [1] is 77%. For the same compound, the results for the half-life at 5 μM in data set [2] and in data set [3] were 42 min and 27 min, respectively.

Turning to `Cc1cc(F)ccc1S(=O)(=O)NO` [Compound 39, 4-Fluoro-N-hydroxy-2-methylbenzene-1-sulfonamide], the half-life at 5 μM in data set [4] is 29 min; in data set [2], 30 min. The “Relative N2O Yield (90 minutes incubation)” value in data set [1] was found to be 60%. Also, the “Relative N2O Yield (360 minutes incubation)” value in data set [1] is listed as 75%.

As for `O=[N+]([O-])c1cc(S(=O)(=O)NO)sc1Cl` [Compound 47, 5-Chloro-N-hydroxy-4-nitrothiophene-2-sulfonamide], the half-life at 5 μM in data set [4] is < 5 min. In data set [1], the “Relative N2O Yield (90 minutes incubation)” value is given as 58% and the “Relative N2O Yield (360 minutes incubation)” value is 70%. Further, in data set [2], the half-life at 5 μM turned out to be 11 min.

Regarding `Cc1ccc(C)c(S(=O)(=O)NO)c1` [Compound 49, N-Hydroxy-2,5-dimethylbenzene-1-sulfonamide], the half-life at 5 μM in data set [4] is 13 min. Moreover, in data set [1], the “Relative N2O Yield (90 minutes incubation)” value was found to be 42% and the “Relative N2O Yield (360 minutes incubation)” value was determined as 68%. The half-life at 5 μM in data set [2] is 87 min.

With `O=S(=O)(NO)c1cc(S(=O)(=O)c2ccccc2)cs1` [Compound 51, 4-(Benzenesulfonyl)-N-hydroxythiophene-2-sulfonamide], the half-life at 5 μM worked out at 7 min in data set [4] and 15 min in data set [2]. Also, the “Relative N2O Yield (90 minutes incubation)” value in data set [1] was 96%.

For the compound `Cc1ccc(F)c(S(=O)(=O)NO)c1` [Compound 56, 2-Fluoro-N-hydroxy-5-methylbenzene-1-sulfonamide], in data set [4], the half-life at 5 μM is 8 min. In data set [1], the “Relative N2O Yield (90 minutes incubation)” value is 72% and the “Relative N2O Yield (360 minutes incubation)” value is 78%. Besides, the half-life at 5 μM in data set [2] was 34 min.

In the case of `O=S(=O)(NO)c1ccc(F)c(Cl)c1` [Compound 87, 3-Chloro-4-fluoro-N-hydroxybenzene-1-sulfonamide], the half-life at 5 μM in data set [4] was found to be 49 min; in data set [2], 101 min; in data set [3] it was 24 min. The “Relative N2O Yield (90 minutes incubation)” value in data set [1] is recorded as 53%. Besides, the “Relative N2O Yield (360 minutes incubation)” value in data set [1] turned out to be 79%.

As for `O=S(=O)(NO)c1cccc(S(=O)(=O)NO)c1` [Compound 88, 1-N,3-N-Dihydroxybenzene-1,3-disulfonamide], the “Relative N2O Yield (90 minutes incubation)” value in data set [1] was determined as 53%. Moreover, the “Relative N2O Yield (360 minutes incubation)” value in data set [1] worked out at 100%. The figures for the half-life at 5 μM in data set [2] and in data set [3] were 38 min and 16 min, respectively.

As to `O=S(=O)(NO)c1cccc(Br)c1` [Compound 89, 3-Bromo-N-hydroxybenzene-1-sulfonamide], the results for the half-life at 5 μM in data set [4], in data set [2] and in data set [3] were 38.4 min, 76 min and 34 min, respectively.

Take `Cc1ccc(F)cc1S(=O)(=O)NO` [Compound 90, 5-Fluoro-N-hydroxy-2-methylbenzene-1-sulfonamide]: the half-life at 5 μM was 6.8 min in data set [4], 25.1 min in data set [2] and 21 min in data set [3]. The “Relative N2O Yield (90 minutes incubation)” value in data set [1] is listed as 90%.

For `Cc1noc(C)c1S(=O)(=O)NO` [Compound 91, N-Hydroxy-3,5-dimethyl-1,2-oxazole-4-sulfonamide], in data set [4] (5 μM), the “T1/2 (minutes) Rat” value amounted to 176 min. Moreover, the values for the half-life at 5 μM in data set [2] and in data set [3] were 211 min and 54.4 min, respectively.
